Test results published in US11931428B2, “Selective hydrogen sulfide probe and uses thereof” (Wake Forest University Health Sciences, priority 2019, dated 2024).

Columns and labels:
HeLa cells = assay: Confocal fluorescence imaging of H2S in live HeLa cells; type: cell-based; details: for fluorescence in cells upon treatment with Na2S / fluorescence in cells, probe alone (no Na2S): HeLa, AL2 10 μM; for fluorescence in cells upon treatment with Na2S: 50 μM Na2S, AL1 12.5 μM, ex 405 nm, em 452 nm; for fluorescence in cells, probe alone (no Na2S): AL1 12.5 μM 45 min then washed
Experimental: FIG. 4. (A) Visualization of H2S in live HeLa cells with AL1 (12.5 μm). Imaging: ex: 405 nm, em: 452 nm. (a and b): No Na2S added (control); (c and d): Addition of Na2S (50 μm). Scale bar is set to 20 μm. (B) Visualization of H2S in live HeLa cells with AL4 (5 μm). Imaging: ex: 561 nm, em: 587 nm. (e and f): No Na2S added (control); g and h: Addition of Na2S (25 μM). Scale bar is set to 20 μm.
FIG. 5. Fluorescence images of live HeLa cells treated with AL2 (10 μM); (a and b): No Na2S (control); (c and d): Addition of Na2S (50 μM); (e and f): Fluorescence images of HeLa cells pretreated with biotin (2 mM) followed by treatments with AL2 (10 μM) and Na2S (50 μM). Imaging: ex: 405 nm, em: 452 nm. Scale bar is set to 20 μm.
Probe AL1 was also shown to be useful in imaging H2S in live cells using confocal microscopy. Cultured HeLa cells were incubated with AL1 (12.5 μM) for 45 min and then washed to remove any excess probe. […] Probe AL4 utilizes resorufin as its latent fluorescent reporter which has the added benefit of longer excitation and emission wavelengths, further boosting its potential in tissue imaging applications.
(§1) As a proof of concept we generated AL2, a cancer cell-specific H2S probe, by coupling biotin to its amine handle (Scheme 1). W. X. Ren et al, Chem. Commun. 2015, 51, 10403-10418; X. Song et al, RSC Adv. 2017, 7, 15817-15822; M. H. Lee et al, Chem. Soc. Rev. 2018, 47, 28-52. Fluorescence imaging experiments were then conducted using both a biotin positive (HeLa) and biotin negative (HEK293) cell line to confirm its selective targeting and delivery. […] To confirm that AL2 was targeting biotin cell surface receptors, in a separate experiment, HeLa cells were pre-treated with biotin prior to the addition of AL2. […] The selectivity of AL2 was further established using HEK293 (noncancerous human embryonic kidney) cells.

HEK293 cells = assay: Fluorescence imaging in live HEK293 cells (biotin negative); type: cell-based, human; details: AL2 10 μM, with or without Na2S 50 μM
Experimental: FIG. 6. Fluorescence images of live HEK293 cells. (a and b): Treatment with AL2 (10 μM) alone; (c and d): Treatment with AL2 (10 μM) followed by treatment with Na2S (50 μM). Imaging: ex: 405 nm, em: 452 nm. Scale bar is set to 20 μm.
as §1

[1] = Selectivity of fluorescence turn-on towards H2S versus biological thiols and nucleophiles in PBS buffer; details: probe 20 μM
Experimental: FIG. 1. Fluorescence response (λex: 330 nm) of probes (20 μM) in PBS buffer (pH 7.4), at room temperature, and in the presence of various biological thiols and nucleophiles: (1) PBS buffer alone; (2) 50 μM Na2S; (3) 100 μM cysteine; (4) 1 mM glutathione; (5) 100 μM serine; (6) 100 μM lysine; (7) 1 mM glutathione+50 μM Na2S. (A): Probe AL1 and (B): Probe AL3.
To assess our hypothesis, the selectivity of our design towards H2S was first assessed by incubating AL1 (20 μM) with various biological thiols and nucleophiles in PBS buffer (FIG. 1A). After reacting for 10 min at room temperature, the resulting turn-on response was gauged using fluorescence spectroscopy. The results from this assay were indeed stunning. In the presence of 50 μM Na2S (an H2S equivalent at physiological pH) a greater than 100-fold increase in relative fluorescence intensity was observed. […] Moreover, this assay confirmed that AL1 is not consumed by the presence of other thiols and that its reactivity towards H2S is retained in their presence (FIG. 1A, Column 7). To confirm that the gem-dimethyl group affords enhanced differentiation, we also generated AL3 which lacks the steric shield alpha to the ester carbonyl.

[2] = Stability in PBS buffer over a 24 h incubation period (fluorescence); type: physicochemical
Experimental: (§2) FIG. 2. Fluorescence response (λex: 330 nm) of probes (20 μM) at room temperature and under varying conditions: (A and B): (1): 24 hour incubation period in PBS buffer alone; (2): 24 hour incubation period in PBS buffer followed by the addition of Na2S (50 μM). (C and D): (1): 10 min incubation period in fetal bovine plasma alone; (2): 10 min incubation period in fetal bovine plasma and in the presence of Na2S (50 μM). AL1: 2A and 2C and AL3: 2B and 2D.
(§3) To further establish the increased durability of AL1 relative to AL3, we tested the stability of both compounds in PBS buffer over a 24 h incubation period (FIGS. 2A and 2B). […] The stability of AL1 and AL3 was also assessed in fetal bovine plasma (FIGS. 2C and 2D).

[3] = Stability in fetal bovine plasma (fluorescence); type: in vitro ADME; details: probe 20 μM
Experimental: as §2, §3

[4] = Time-dependent and concentration-dependent fluorescence sensing of H2S in PBS buffer; details: AL1 20 μM, Na2S 50 μM, PBS buffer pH 7.4, room temperature
Experimental: FIG. 3. (A) Time-dependent fluorescence emission (λex: 330 nm) of AL1 (20 μM) in the presence of Na2S (50 μM). (B) Fluorescence intensity (λex: 330 nm) of AL1 ([…]) in response to increasing Na2S concentrations.
The efficiency of AL1 in sensing H2S in PBS buffer (pH 7.4) and at room temperature was also assessed (FIG. 3A). Under these conditions, the resulting fluorescence intensity reached a maximum in less than two minutes, highlighting that our designed probe is not only selective but also highly reactive towards H2S—a necessary feature for detecting analytes which are short-lived. To determine if AL1 could also be used to detect H2S quantitatively in buffer, the resulting fluorescence was measured in response to a series of different concentrations of H2S (FIG. 3B). Indeed, the ensuing fluorescence intensity increased in a linear fashion in the range of 0-20 μM H2S and with a detection limit of 0.05 μM.

SMILES: CC(C)(C[Se]SCCNC(=O)CCCC[C@@H]1SC[C@@H]2NC(=O)N[C@@H]21)C(=O)Oc1ccc2ccc(=O)oc2c1 [AL2]
- fluorescence in cells pre-treated with biotin, after Na2S (HeLa cells; HeLa pretreated with biotin 2 mM, then AL2 10 μM and Na2S 50 μM): did not produce any fluorescence
- fluorescence in cells upon treatment with Na2S (HeLa cells): strong blue fluorescent signal
- fluorescence in cells, probe alone (no Na2S) (HeLa cells): minimal fluorescence
- fluorescence in cells, even upon addition of exogenous Na2S (HEK293 cells): negligible fluorescence

SMILES: CC(=O)NCCS[Se]CC(C)(C)C(=O)Oc1ccc2ccc(=O)oc2c1 [AL1]
- increase in relative fluorescence intensity ([1]; 50 μM Na2S, PBS buffer pH 7.4, 10 min, room temperature, λex 330 nm): greater than 100 fold
- reactivity towards H2S in the presence of other thiols ([1]; 1 mM glutathione + 50 μM Na2S, PBS pH 7.4 (FIG. 1A, Column 7)): retained
- selectivity: fluorescence in the presence of other biologically relevant thiols and nucleophiles ([1]; 100 μM cysteine, 1 mM glutathione, 100 μM serine, 100 μM lysine, PBS pH 7.4, 10 min, room temperature): no increase in fluorescence was detected
- fluorescence on addition of Na2S after prolonged exposure to buffer ([2]; 24 h in PBS buffer, then Na2S 50 μM): impressive turn-on fluorescence
- stability in PBS buffer alone ([2]; probe 20 μM, 24 h incubation, room temperature): superb stability
- turn-on response in fetal bovine plasma when Na2S present ([3]; 10 min, Na2S 50 μM): marked turn-on response
- stability in fetal bovine plasma (fluorescence in the absence of Na2S) ([3]; 10 min incubation, room temperature): remarkable stability
- time for fluorescence intensity to reach a maximum [4]: less than two
- fluorescence in cells upon treatment with Na2S (HeLa cells): strong blue fluorescence
- fluorescence in cells, probe alone (no Na2S) (HeLa cells): did not observe any fluorescent cells
